The text below walks through data of patent US12559749B2, “Methods of rescuing stop codons via genetic reassignment with ACE-tRNA” (UNIVERSITY OF IOWA RESEARCH FOUNDATION, priority 2017, dated 2026).

In series [1] the test system is native stop codons (TAA, TAG, TGA), 3′UTR ribosome density. Put plainly: Ribosome footprint profiling of transcriptome-wide 3′UTRs, HEK293 cells. It is filed as cell-based, human. The source says: The question was raised whether ACE-tRNAs that show efficacious suppression of premature stop codons may also induce global readthrough of native stop codons. To address this potential “off target” suppression, a transcriptome-wide quantitative profile of actively engaged ribosomes on all cellular transcripts was obtained by generating libraries of ribosome footprints from HEK293 cells expressing exogenous ACE-tRNAs or a control mock plasmid (puc57GG). Streptomycin was removed from the growth media to prevent readthrough artifacts. For comparison, the ribosome footprint library was also generated from cells in the presence or absence of G418 (150 μM, 48 h). […] Only transcripts with a minimum threshold of 5 RPKM in the coding sequence and 0.5 RPKM in the 3′UTR in two replicate libraries were included for the quantitation comparison (254 transcripts in G418 and 495-748 transcripts in ACE-tRNAs). […] ACE-tRNAs examined here had no detectable change of 3′UTR ribosome density with the exception of ACE-tRNA Gln-UAA and Arg-UGA which induced approximately a 2-fold increase in 3′UTR ribosome density for the cognate stop codon complimentary to the ACE-tRNA anticodon. Understanding the biological significance of 2-fold readthrough of protein stops will require further study, but this effect is substantially lower compared to the 100- to 1000-fold suppression of PTC for the same ACE-tRNA.
Multiple in-frame stop codons are frequently found at the end of genes 37-39 and may cause a minor difference in overall 3′UTR ribosome density for ACE-tRNA and G418 treatment. Ribosome occupancy was examined at each nucleotide in the 3′UTR within a 60 nt region downstream of the stop codons. […] Reads were normalized per total million-mapped reads, compared against control cells, and reported as a log 2-fold change as in panel A. More than 5,200 transcripts were mapped to at least 1 footprint in the region of interest. […] Taken together, the ribosome profiling data argue that efficiency of native stop codon suppression by ACE-tRNAs is generally low, and markedly less than the level of PTC suppression.
Ribosome Footprint Profiling Library preparation. HEK293 cells transiently transfected with ACE-tRNAs and control plasmid (puc57GG) were grown in standard grown media in the absence of Pen-Strep for 48 h. Libraries were prepared as described^55, with a few modifications. Briefly, cells were rapidly cooled by addition of ice-cold PBS, lysed in lysis buffer (20 mM Tris-HCl/pH7.4, 150 mM NaCl, 5 mM MgCl2, 1 mM DTT, 1% (v/v) Triton X-100, and 25 U ml^−1 Turbo DNase I) for 10 min on ice, and triturated with ten times through a 26-G needle. […]

For series [2] the following is noted: Phase 3 clinical trials; cited from earlier work.
Another series has as its system NLuc-UGA PTC reporter. Put plainly: NanoLuc nonsense reporter screen of ACE-tRNA, UGA (TGA) PTC, HEK293 cells. It is filed as cell-based, human. Particulars: t-stem variants, luciferase 24 hours post-transfection, HEK cells. The source says:
Several different nonsense mutations cause CF, thus underlying roughly 10% of all CF disease. FIG. 7. These cases are concentrated into […] specific genetic lesions: E60X, R75X, G542X, R553X, Q890X, Y1092X, R1158X, R1162X and W1282X. We propose that it should be feasible, with the right approach, to screen existing human tRNA sequences for modification and tolerance to anti-codon editing. To this end, roughly 144 ACE-tRNAs were candidates to test for those that could be used to promote the repair of the disease causative nonsense codon and the expression of the full-length protein. Specifically, using the scheme described in FIG. 11, tRNA libraries were generated to identify novel tRNA sequences that encode for ACE tRNA with the ability to repair the top CF causative nonsense mutations. Specifically, 10 ng of annealed oligos encoding the ACE-tRNAs were combined with 50 ng of NanoLuc reporter plasmid, 1 ul 10× CutSmart Buffer (NEB), 1 ul T4 ligase (NEB), 10 mM ATP and 1 ul BbsI (NEB) and cycled in a thermocycler as described in FIG. 11. 1 ul of the reaction was transformed into competent E. coli and the transformants were plated on ampicillin agar plates. […]
Screening studies were first performed to identify the best ACE-tRNA Candidates from tryptophan and glycine. […] Plates were read on a SpectraMax i3 (Molecular Devices). […]

For the molecule `CN[C@@H]1[C@@H](O)[C@@H](O[C@@H]2[C@@H](O)[C@H](O[C@H]3O[C@H]([C@@H](C)O)[C@@H](O)[C@H](O)[C@H]3N)[C@@H](N)C[C@H]2N)OC[C@]1(C)O` [G418, reference compound], the “effect on transcriptome-wide 3′UTR ribosome density” value in series [1] (G418 150 μM, 48 h, ACE-tRNAs transiently transfected) is given as “no observable effect on transcriptome-wide 3′UTR ribosome density”. The “ribosome occupancy in the early region of 3′UTR downstream of stop codons” value in series [1] (per nucleotide, -35 to +65 nt) is given as “no observable change of ribosome occupancy”.

As to `O=C(O)c1cccc(-c2noc(-c3ccccc3F)n2)c1` [Ataluren], the “efficacy in patient populations” value in series [2] is on record as “unexpectedly low efficacy”.

B1: TS-38 52-62 G-C: t-stem variant of Trpchr17.trna39, SEQ ID NO: 3 (nucleic acid)
chain: GGCCUCGUGGCGCAACGGUAGCGCGUCUGACUUCAGAUCAGAAGGUUCCGGGUUCAAAUCCCGGCGGGGUCA
modifications: expressed or natural sequence
Regarding B1, the “increase of suppression activity relative to Trpchr17.trna39” value in the series on NLuc-UGA PTC reporter is “roughly 250%”.

B2: TS-10 52-62 G-C: t-stem mutant of Trpchr17.tRNA 39, FIG. 12B, SEQ ID NO: 589 (nucleic acid)
chain: GACCUCGUGGCGCAACGGUUAGCGCGUCUGACUUCAGAUCAGAAGGCUCCGGGUUCGAAUCCCGGCGGGGUCA
modifications: expressed or natural sequence
With B2, the “increase of suppression activity relative to Trpchr17.trna39” value with NLuc-UGA PTC reporter was approximately 250%.
